Like-named read-outs stand apart in the source and are kept apart here.
Tests used:
[1] = test system: H1975 cells; assay: MTS cell viability assay, H1975; format: cell-based, human; conditions: for IC50: MTS 72 hours
Protocol: NSCLC cell lines (201T and H1975) were transfected with CS3D or CS3M (cyclic STAT3 mutant decoy) at concentrations ranging from 0 nM to 600 nM. Using MTS assays, cell viabilities were assessed 72 hours later. Three independent experiments were performed, using 24-well plates and 4 wells/concentration.
To determine the concentration of CS3D required to inhibit cell viability, increasing concentrations of CS3D was transfected, and after 72 hours, MTS assays were used to assess cell viability. Data were normalized to cells treated with lipofectamine alone.
Fluorescently-labeled CS3M and CS3D (with iFluor) were also produced using enzymatic ligation as described above and used to assess uptake efficiency. Transfections of the cyclic oligonucleotides were performed using Lipofectamine 2000 (Life Technologies) in opti-MEM media (Life Technologies) as follows: Cells were plated at […] confluency, and exposed to transfection media containing the respective circularized oligonucleotides for 24 hours at 37° C. Post-transfection, cell recovery was initiated in media containing 10% heat-inactivated fetal bovine serum.
Dose-response experiments assessing the relative number of metabolically active viable cells were performed by transfecting cells with increasing concentrations of CS3D or CS3M, followed by performance of MTS assays. After 72 hours, 5 mg/ml of MTS reagent was added in the plates and incubated 37° C. for 20 minutes. The plates were then read at 490 nm in a Synergy microplate reader (BioTek, Winooski, Vermont) using Gen5 2.05 software. Data obtained following treatment with C3SD or CS3M were normalized to treatment with lipofectamine alone. […] To assess induction of apoptosis in response to CS3D, H1975 and 201T cells were transfected with 100 nM of CS3M or CS3D. After twenty four hours of transfection, cells were resuspended in annexin V-binding buffer, incubated with 5 μL of propidium iodide (BD Biosciences) and subjected to flow cytometric analysis, using a BD FACS Canto II Flow Cytometer.

[2] = test system: c-Myc protein in H1975 cells; conditions: H1975, 3 hr after EGF
Protocol: (§1) c-Myc is a STAT3 target gene that is known to be activated by EGF treatment. To investigate the effects of STAT3 blockade on c-Myc expression, cells were first treated with 10 ng/ml EGF for 1.5 hr (deemed the optimal time to observe increased c-Myc RNA), 24 hr after transfection of the cyclic oligonucleotides. RT-qPCR was used to assess differences in mRNA expression in STAT3 decoy-treated versus mutant decoy-treated cells (FIGS. 5A and 5B). […] Cells were treated 24 hours post-transfection with EGF (10 ng/ml) for 1.5 hr and mRNA was harvested from wild-type (A) and mutant EGFR T790M (B) NSCLC cell lines, and mRNA expression was assessed by RT-qPCR. Relative mRNA expression was normalized to GAPDH mRNA levels as an internal control. Statistical significance was determined as *P<0.05. […] Cells were treated 24 hours post-transfection with EGF (10 ng/ml) for 1.5 hr and mRNA was harvested from mutant EGFR T790M (B) NSCLC cell lines. […] Cells were is treated as in FIGS. 5A and 5B, and 3 hr after EGF treatment, lysates were collected from wild-type 201T (left) and mutant EGFR […] H1975 (right) NSCLC cell lines.

[3] = test system: c-Myc protein in 201T cells; conditions: 3 hr after EGF, compared to CS3M or lipofectamine alone
Protocol: as §1

[4] = test system: STAT1 target genes (IKBKE, IFT2, IFT1, IRF7) and NFκB target genes; conditions: CS3D compared to CS3M treated cells
Protocol: as §1

[5] = test system: c-Myc in H1975-derived tumors; assay: c-Myc expression in H1975 xenograft tumors (Western blot); format: in vivo, nude mice
Protocol: FIGS. 7C and 7D show c-Myc is suppressed after CS3D treatment in vivo. At the end of the treatments, tumors were harvested, whole cell lysates were prepared and RNA extracted for target gene analysis by Western blotting and RT-qPCR GAPDH protein was used as internal loading control for immunoblotting. CS3D treated tumors (C4, C5, and C6) from separate animals show a decrease in c-Myc expression level relative to the CS3M-treated group (C1, C2, and C3) in 201T. […] Data are shown as mean+/−SEM.
To determine how CS3D blocks NSCLC growth, Western blot, qRT-PCR, and immunohistochemical analysis were performed to determine expression of c-Myc in residual tumors. These analyses identified a substantial downregulation of c-Myc protein (FIGS. 7C and 7D) and mRNA levels (FIG. 7E) in individual CS3D-treated tumors relative to CS3M-treated tumors in both 201T and H1975 xenografts. Some variability in protein levels among individual xenografts was observed (FIGS. 7C and 7D); the densitometry units for c-Myc protein after normalizing for GAPDH levels ranged from 0.11-0.16 units for CS3D-treated xenografts and 0.25-0.46 units for CS3M-treated tumors in H1975. Similarly, in 201T-derived tumors these measurements ranged from 0.015 to 0.51 units for CS3D and 0.28 to 0.97 units for CS3M. Even with this variability, the effect across the groups in both cell lines was significant (P<0.05 for H1975 and P<0.042 for 201T xenografts), with a mean decrease of 65% and 70%, respectively.

[6] = test system: NSCLC cells (H1975 and 201T); assay: Annexin V/propidium iodide apoptosis by flow cytometry; format: cell-based, human
Protocol: Statistical significance was determined as *P<0.05, n=3.
Dose-response experiments assessing the relative number of metabolically active viable cells were performed by transfecting cells with increasing concentrations of CS3D or CS3M, followed by performance of MTS assays. After 72 hours, 5 mg/ml of MTS reagent was added in the plates and incubated 37° C. for 20 minutes. The plates were then read at 490 nm in a Synergy microplate reader (BioTek, Winooski, Vermont) using Gen5 2.05 software. Data obtained following treatment with C3SD or CS3M were normalized to treatment with lipofectamine alone. […] After twenty four hours of transfection, cells were resuspended in annexin V-binding buffer, incubated with 5 μL of propidium iodide (BD Biosciences) and subjected to flow cytometric analysis, using a BD FACS Canto II Flow Cytometer.

CS3D (DNA GATTTACGGGAAATGCSCATTTCCC; cyclic decoy with two hexaethylene glycol linkers, further chemistry not given here)
inhibition in proliferation ([1]; 0.3 μM transfection, H1975, relative to CS3M): 50% | IC50 ([1]; H1975 (mutant EGFR), read-out: IC50): ~300 nM | IC50 ([1]; H1975, EGFR mutant (L858R/T790M), KRAS WT, read-out: CS3D IC50): 300 nM | reduction in c-Myc protein expression [2]: 40% | reduction in c-Myc protein expression [3]: 31% | mRNA expression of STAT1 and NFκB target genes [4]: no decrease in mRNA expression level | c-Myc protein densitometry normalized for GAPDH ([5]; H1975 xenograft tumors, range among individual tumors): 0.11-0.16 units | mean decrease of c-Myc protein ([5]; H1975 xenografts, CS3D vs CS3M): 65% | increase in number of cells undergoing apoptosis ([6]; 100 nM, 24 h, compared to CS3M): 2 fold | increase in the percent of apoptotic cells ([6]; 201T and H1975, relative to CS3M): 2 fold | increase in number of apoptotic cells ([6]; one transfection, all 4 cell lines): 2 fold
